These results are taken from BindingDB's records for doi:10.7270/Q2J67FB5 (Nmmlsc, 2007).

A word on the IC50: it is the concentration that gives 50% inhibition. Low values mean greater potency, high ones weaker potency.

Structures are written as SMILES.

The target of this test is T1, fMet-Leu-Phe receptor (Homo sapiens, UniProt P21462).
T1 sequence (P21462 whole entry): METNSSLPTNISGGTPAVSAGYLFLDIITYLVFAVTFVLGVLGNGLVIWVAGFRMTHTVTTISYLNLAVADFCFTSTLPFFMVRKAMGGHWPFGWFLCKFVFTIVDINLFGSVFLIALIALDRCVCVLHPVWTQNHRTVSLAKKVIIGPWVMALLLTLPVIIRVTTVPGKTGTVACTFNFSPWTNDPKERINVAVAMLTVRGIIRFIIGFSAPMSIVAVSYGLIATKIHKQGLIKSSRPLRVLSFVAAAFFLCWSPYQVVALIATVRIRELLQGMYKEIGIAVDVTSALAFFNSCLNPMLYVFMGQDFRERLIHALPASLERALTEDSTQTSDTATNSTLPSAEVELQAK
Briefly: FPR ligands, dose response (AID 519).
For `CCOc1cc(C2C(C(=O)c3ccco3)C(=O)C(=O)N2CCc2ccccc2)ccc1O` (configuration not stated) [2-(3-ethoxy-4-hydroxyphenyl)-3-(furan-2-carbonyl)-4-hydroxy-1-(2-phenylethyl)-2H-pyrrol-5-one], the IC50 is greater than 66.7 µM.

`CCN(CC)c1ccc(C=NC(C#N)C(=N)C#N)cc1` (configuration not stated) [SMR000023871] returned an IC50 greater than 66.7 µM.

As to `COCCN1C(=O)C(=O)C(C(=O)c2ccco2)C1c1cccc(Oc2ccccc2)c1` (configuration not stated) [3-(furan-2-carbonyl)-4-hydroxy-1-(2-methoxyethyl)-2-(3-phenoxyphenyl)-2H-pyrrol-5-one], 56 µM corresponded to half-maximal inhibition (IC50).

In the case of `O=C1C(=O)N(CCCN2CCOCC2)C(c2ccccn2)C1C(=O)c1cc2ccccc2o1` (configuration not stated) [3-(1-benzofuran-2-carbonyl)-4-hydroxy-1-(3-morpholin-4-ylpropyl)-2-pyridin-2-yl-2H-pyrrol-5-one], the half-maximal inhibitory concentration (IC50) was found to be 60.7 µM.

`COc1ccc(C2C(C(=O)c3ccccc3)C(=O)C(=O)N2CC(C)O)c(OC)c1` (configuration not stated) [(4Z)-5-(2,4-dimethoxyphenyl)-4-[hydroxy(phenyl)methylene]-1-(2-hydroxypropyl)pyrrolidine-2,3-quinone] had a 50% inhibitory concentration (IC50) of 38.6 µM.

On to `COc1cccc(C2C(C(=O)c3ccc(OC)c(OC)c3)C(=O)C(=O)N2c2cc(C)on2)c1` (configuration not stated) [(4E)-4-[(3,4-dimethoxyphenyl)-hydroxy-methylene]-5-(3-methoxyphenyl)-1-(5-methylisoxazol-3-yl)pyrrolidine-2,3-quinone], for which the IC50 was greater than 66.7 µM.

`COCCCN1C(=O)C(=O)C(C(=O)c2ccco2)C1c1cccc(Br)c1` (configuration not stated) [2-(3-bromophenyl)-3-(furan-2-carbonyl)-4-hydroxy-1-(3-methoxypropyl)-2H-pyrrol-5-one] had an IC50 of 31.2 µM.

On to `O=C1CCCC(=O)C1C(C#Cc1ccccc1)C1C(=O)CCCC1=O` [3-hydroxy-2-[1-(2-hydroxy-6-keto-cyclohexen-1-yl)-3-phenyl-prop-2-ynyl]cyclohex-2-en-1-one], for which the IC50 is greater than 66.7 µM.

In turn, `CSCCC1c2c(-c3cccs3)n[nH]c2OC(=N)C1C#N` (configuration not stated) [6-azanyl-4-(2-methylsulfanylethyl)-3-thiophen-2-yl-2,4-dihydropyrano[2,3-c]pyrazole-5-carbonitrile] yielded a half-maximal inhibitory concentration (IC50) greater than 66.7 µM.

`COc1ccc(OC)c(C2C(C(=O)c3ccco3)C(=O)C(=O)N2CCCN2CCOCC2)c1` (configuration not stated) [2-(2,5-dimethoxyphenyl)-3-(furan-2-carbonyl)-4-hydroxy-1-(3-morpholin-4-ylpropyl)-2H-pyrrol-5-one] returned an IC50 of 26.4 µM.

On to `COc1ccc(CCN2C(=O)C(=O)C(C(=O)c3ccco3)C2c2cccs2)cc1OC` (configuration not stated) [1-[2-(3,4-Dimethoxy-phenyl)-ethyl]-4-(furan-2-carbonyl)-3-hydroxy-5-thiophen-2-yl-1,5-dihydro-pyrrol-2-one], for which the IC50 was 19 µM.

`C=CCOc1ccc(C2C(C(=O)c3ccco3)C(=O)C(=O)N2Cc2cccnc2)cc1` (configuration not stated) [3-(furan-2-carbonyl)-4-hydroxy-2-(4-prop-2-enoxyphenyl)-1-(pyridin-3-ylmethyl)-2H-pyrrol-5-one] returned an IC50 of 9.7 µM.

As to `COC(=O)c1[nH]c(C)c(C(=O)C2C(=O)C(=O)N(CCCN3CCOCC3)C2c2ccccn2)c1C` (configuration not stated) [methyl 4-{[4-hydroxy-1-[3-(4-morpholinyl)propyl]-5-oxo-2-(2-pyridinyl)-2,5-dihydro-1H-pyrrol-3-yl]carbonyl}-3,5-dimethyl-1H-pyrrole-2-carboxylate], 9.7 µM corresponded to half-maximal inhibition (IC50).

Compound `COc1cc(C2C(C(=O)c3ccc(C)o3)C(=O)C(=O)N2CCc2ccccc2)ccc1O` (configuration not stated) [2-(3-methoxy-4-oxidanyl-phenyl)-3-(5-methylfuran-2-yl)carbonyl-4-oxidanyl-1-(2-phenylethyl)-2H-pyrrol-5-one] had an IC50 of 19.7 µM.

Take `CCOc1cccc(C(=O)C2C(=O)C(=O)N(Cc3cccnc3)C2c2ccco2)c1` (configuration not stated) [(4Z)-4-[(3-ethoxyphenyl)-hydroxymethylidene]-5-(2-furanyl)-1-(3-pyridinylmethyl)pyrrolidine-2,3-dione]: the IC50 was greater than 66.7 µM.

The compound `O=c1c(C23CC4CC(CC(C4)C2)C3)c(O)n(-c2ccccc2)n1-c1ccccc1` [MLS000526352] came in with a concentration for half-maximal inhibition (IC50) of 11.5 µM.

`COc1ccc(OC)c(C2C(C(=O)c3cccs3)C(=O)C(=O)N2c2cc(C)on2)c1` (configuration not stated) [2-(2,5-dimethoxyphenyl)-1-(5-methyl-1,2-oxazol-3-yl)-4-oxidanyl-3-thiophen-2-ylcarbonyl-2H-pyrrol-5-one] registered an IC50 greater than 66.7 µM.

In turn, `COCCCN1C(=O)C(=O)C(C(=O)c2ccco2)C1c1ccc(Br)cc1` (configuration not stated) [2-(4-bromophenyl)-3-(furan-2-carbonyl)-4-hydroxy-1-(3-methoxypropyl)-2H-pyrrol-5-one] showed an IC50 of 14.7 µM.

Take `O=C1C(=O)N(CCOCCO)C(c2cccs2)C1C(=O)c1cccs1` (configuration not stated) [1-[2-(2-hydroxyethyloxy)ethyl]-4-oxidanyl-2-thiophen-2-yl-3-thiophen-2-ylcarbonyl-2H-pyrrol-5-one]: half-maximal inhibition (IC50) was put at 21.4 µM.

Take `CC1=NC(C)=C(C#N)C(c2ccc3ncccc3c2)C1C#N` (configuration not stated): the half-maximal inhibitory concentration (IC50) was greater than 66.7 µM.

As for `CCOc1ccc(C2C(C(=O)c3ccco3)C(=O)C(=O)N2Cc2cccnc2)cc1` (configuration not stated) [2-(4-ethoxyphenyl)-3-(furan-2-carbonyl)-4-hydroxy-1-(pyridin-3-ylmethyl)-2H-pyrrol-5-one], the IC50 amounted to 15.3 µM.

`COc1ccc(C2C(C(=O)c3ccco3)C(=O)C(=O)N2CCc2ccccc2)cc1OC` (configuration not stated) [2-(3,4-dimethoxyphenyl)-3-(furan-2-carbonyl)-4-hydroxy-1-(2-phenylethyl)-2H-pyrrol-5-one] had an IC50 of 36.9 µM.

Take `COc1cc(C2C(C(=O)c3ccc4c(c3)CC(C)O4)C(=O)C(=O)N2CCCn2ccnc2)ccc1O` (configuration not stated) [(4E)-1-(3-imidazol-1-ylpropyl)-5-(3-methoxy-4-oxidanyl-phenyl)-4-[(2-methyl-2,3-dihydro-1-benzofuran-5-yl)-oxidanyl-methylidene]pyrrolidine-2,3-dione]: the IC50 turned out to be 57.5 µM.

As to `O=C1Nc2ccccc2/C1=C1/SC(=S)N(CC2CCCO2)C1=O` (configuration not stated) [(5Z)-5-(2-ketoindolin-3-ylidene)-3-(tetrahydrofurfuryl)-2-thioxo-thiazolidin-4-one], the IC50 is greater than 66.7 µM.

As to `O=C1C(=O)N(CC2CCCO2)C(c2cccnc2)C1C(=O)c1ccco1` (configuration not stated) [3-(furan-2-carbonyl)-4-hydroxy-1-(oxolan-2-ylmethyl)-2-pyridin-3-yl-2H-pyrrol-5-one], the IC50 was determined as 54.8 µM.

For the compound `Cc1ccc(C(=O)C2C(=O)C(=O)N(CC(C)O)C2c2ccc(N(C)C)cc2)cc1` (configuration not stated) [(4E)-5-[4-(dimethylamino)phenyl]-1-(2-hydroxypropyl)-4-[hydroxy(p-tolyl)methylene]pyrrolidine-2,3-quinone], the half-inhibitory concentration (IC50) is greater than 66.7 µM.

On to `COc1cccc2cc(C(=O)C3C(=O)C(=O)N(Cc4ccco4)C3c3cccnc3)oc12` (configuration not stated) [1-(2-furanylmethyl)-4-hydroxy-3-[(7-methoxy-2-benzofuranyl)-oxomethyl]-2-(3-pyridinyl)-2H-pyrrol-5-one], for which the IC50 is greater than 66.7 µM.

The compound `COCCCN1C(=O)C(=O)C(C(=O)c2ccc(OC)cc2C)C1c1cccnc1` (configuration not stated) [(4E)-4-[(4-methoxy-2-methyl-phenyl)-oxidanyl-methylidene]-1-(3-methoxypropyl)-5-pyridin-3-yl-pyrrolidine-2,3-dione] showed an IC50 greater than 66.7 µM.

As for `Cc1ccc(C2C(C(=O)c3sc(C)nc3C)C(=O)C(=O)N2CCN2CCOCC2)o1` (configuration not stated) [3-(2,4-dimethyl-1,3-thiazole-5-carbonyl)-4-hydroxy-2-(5-methylfuran-2-yl)-1-(2-morpholin-4-ylethyl)-2H-pyrrol-5-one], the IC50 was greater than 66.7 µM.

As for `COc1cc(C2C(C(=O)c3ccco3)C(=O)C(=O)N2c2cc(C)on2)cc(Br)c1O` (configuration not stated) [2-(3-bromanyl-5-methoxy-4-oxidanyl-phenyl)-3-(furan-2-ylcarbonyl)-1-(5-methyl-1,2-oxazol-3-yl)-4-oxidanyl-2H-pyrrol-5-one], half-maximal inhibition (IC50) was put at 47.7 µM.

As to `COc1cc(C2C(C(=O)c3ccco3)C(=O)C(=O)N2CCc2ccccc2)ccc1O` (configuration not stated) [3-(furan-2-carbonyl)-4-hydroxy-2-(4-hydroxy-3-methoxyphenyl)-1-(2-phenylethyl)-2H-pyrrol-5-one], the IC50 is greater than 66.7 µM.

As for `COC(=O)c1[nH]c(C)c(C(=O)C2C(=O)C(=O)N(CCN3CCOCC3)C2c2cccnc2)c1C` (configuration not stated) [4-[(E)-hydroxy-[1-[2-(4-morpholinyl)ethyl]-4,5-dioxo-2-(3-pyridinyl)-3-pyrrolidinylidene]methyl]-3,5-dimethyl-1H-pyrrole-2-carboxylic acid methyl ester], the midpoint of inhibition, the IC50, lay at 20.8 µM.

`COc1ccc(C(=O)C2C(=O)C(=O)N(c3nc(C)c(C)s3)C2c2ccco2)cc1` (configuration not stated) [(4Z)-1-(4,5-dimethyl-1,3-thiazol-2-yl)-5-(furan-2-yl)-4-[(4-methoxyphenyl)-oxidanyl-methylidene]pyrrolidine-2,3-dione] registered an IC50 greater than 66.7 µM.

In the case of `CCCCc1c(O)n(-c2ccccc2)n(-c2ccccc2)c1=O` [3,5-Dioxo-1,2-diphenyl-4-n-butylpyrazolidine], the IC50 came out at 5.3 µM.

Regarding `Cc1cc(N2C(=O)C(=O)C(C(=O)c3ccc(F)cc3)C2c2cccc(Br)c2)no1` (configuration not stated) [(4E)-5-(3-bromophenyl)-4-[(4-fluorophenyl)-hydroxy-methylene]-1-(5-methylisoxazol-3-yl)pyrrolidine-2,3-quinone], the half-maximal inhibitory concentration (IC50) was greater than 66.7 µM.

Compound `C=CCN1C(=O)C2(c3ccccc31)C(C(=O)c1ccc3c(c1)OCCO3)C(=O)C(=O)N2CCCOC` (configuration not stated) [(4'E)-1-allyl-4'-[2,3-dihydro-1,4-benzodioxin-6-yl(hydroxy)methylene]-1'-(3-methoxypropyl)spiro[indoline-3,5'-pyrrolidine]-2,2',3'-trione] displayed a 50% inhibitory concentration (IC50) greater than 66.7 µM.

Regarding `Cc1ccsc1C1C2C(=O)CC(C)(C)CC2=Nc2ncnn21` (configuration not stated) [6,6-dimethyl-9-(3-methyl-2-thienyl)-1,5,7,9-tetrahydro-[1,2,4]triazolo[5,1-b]quinazolin-8-one], half-maximal inhibition (IC50) was put at 12.5 µM.
